Data published in patent publication US20250250218A1, “Anti-Amyloidogenic Curcumin Analogues” (MCPHS University, priority 2024, published 2025).

Assays:
Aβ1-42 peptide = Aβ1-42 peptide (Homo sapiens, UniProt P05067); assay: Thioflavin T (ThT) fluorescence assay of Aβ1-42 aggregation (SensoLyte kit); assay type: biochemical; conditions: Aβ1-42 35 μM, minimum of five concentrations, read-out: IC50, inhibition of Aβ aggregation (anti-amyloidogenic activity)
Procedure: All newly synthesized compounds were screened for their anti-amyloidogenic activity on Aβ1-42 peptides, using Phenol Red as the internal standard—all at 100 μM. […] To obtain the IC50 values (shown in FIGS. 4A-4D), all compounds were tested at a minimum of five different concentrations.
Samples of ThT (final concentration of 200 μM) and Aβ1-42 peptide (final concentration of 35 μM) were incubated at 37° C. in a black clear bottom 96-well plate. The ThT fluorescence intensity of each sample was immediately measured every 5 min for 120 min, with 440/485 nm excitation/emission filters and with 15 sec shaking between reads to facilitate aggregation. An inhibitor control containing Aβ1-42 and a supplied aggregation inhibitor (Phenol Red), at a final concentration of 100 μM. The positive control contained Aβ1-42 without an inhibitor. […] All the wells were brought to 100 μL as a final volume.

Aβ42 = assay: Human Aβ42 ELISA on heads of treated transgenic flies; assay type: in vivo; conditions: any concentration fed (1, 10, 100 mcg/mL)
Procedure: To perform the ELISA, the samples were first thawed on ice. A protease inhibitor cocktail with AEBSF (a serine protease inhibitor) was added to each sample, with a final concentration of 1 mM, and were then centrifuged to remove the large particulate matter. After centrifugation, samples were diluted with Standard Diluent Buffer at a 1:50 ratio to ensure sample concentrations would be within the range of the standard curve. […] After 30 min, the solution was thoroughly aspirated, and the wells were washed four times with Ix Wash Buffer. Stabilizing Chromogen (100 mcL) was added to each well and the plate was incubated in the dark. After 30 min, 100 mcL of the Stop Solution was added to every well and the plate was read immediately at an absorbance of 450 nm.
Absorbance measurements for each sample and control were averaged, and from the calibration curve the corresponding level of AB was determined. Data were analyzed using a one-way ANOVA. […] Thus, the physiological benefit observed when the flies were fed either Compound 25, 33, or 34 at varying concentrations, was most likely a result of a decrease in brain plaque burden.

[1] = test system: Drosophila melanogaster UAS-Aβ 1-42/nSyb-Gal4; assay: Forced climbing assay in transgenic flies overexpressing Aβ; assay type: in vivo
Text: To produce the transgenic Drosophila line of interest, UAS-Aβ42 1-42 female virgins were crossed with nSyb-Gal4 males. UAS-Aβ42 1-42 has a TM3, Sb balancer on the third chromosome, resulting in the mutant Sb gene, indicative of stubble bristles as a dominant marker. When crossed with the driver line, such as nSyb-Gal4, the transgenic line will either be UAS-Aβ42 1-42/nSyb-Gal4 or nSyb-Gal4/TM3, Sb. […] All offspring with the inherited balanced nSyb-Gal4TM3, Sb were negatively selected. Once enough F1 progeny of the transgenic line of interest were available, testing of the compounds was carried out. The extended chalcones of interest were dissolved in DMSO to a concentration of 5 mg/mL. […] These three concentrations were then introduced to each respective group. […] A forced climbing assay was conducted on the transgenic flies exposed to the extended chalcone compounds. […] The climbing assay was conducted five times a day, beginning on the seventh day after the flies were exposed to the compounds. Vials were marked with top, middle, and bottom sections, separated by one inch.

SH-SY5Y cells = assay: MTT cell viability assay (neurotoxicity and neuroprotection); conditions: 48 h; for decrease in cell viability, compound co-administered with Aβ42: compound at IC50 concentration + Aβ42 20 μM, Aβ42 alone […]%; for cytotoxicity / neurotoxicity of compound alone: compound at its IC50 concentration
Procedure: To test neurotoxicity and neuroprotective effects of the compounds, a 3-(4,5-dimethylthiazol-2-yl)-2,5-diphenyltetrazolium bromide (MTT) assay was performed using compounds 25, 33, and 34 as described [8].
SH-SY5Y cells (CRL-2266, ATCC, Manassas, VA) were maintained in SH-SY5Y cells (CRL-2266, ATCC, Manassas, VA, USA) were maintained in Dulbecco's Modified Eagle's Medium and Ham's F-12 Medium (DMEM: F12) supplemented with 50 mL fetal bovine serum (10%) and incubated at 37° C., 5% CO2, and 90% humidity. For the MTT assay, cells were sub-cultured using trypsin-ethylenediaminetetraacetic acid (EDTA) (0.25%) solution into clear 96-well plates and allowed to adhere for 24 h. […] All groups were incubated for 48 h.
The MTT assay (Ab211091, Abcam, Waltham, MA, USA) was used to measure cell viability with metabolically active cells reducing the MTT reagent into insoluble formazan. Following the removal of the treatment media, 50 μL of serum-free media and 50 riL of MTT Reagent was added to each well. The plate was then incubated at 37° C. for 3 h. After incubation, 150 μL of MTT Solvent was added into each well. The plate was then wrapped in foil and placed on an orbital plate shaker for 15 min. The absorbance was read at 590 nm.

[2] = 1 mcg/mL fly food, control 4.33%
[3] = 1 mcg/mL fly food, control approximately 95%

Aβ1-42 peptide, sequence (P05067 672-713 limits assumed): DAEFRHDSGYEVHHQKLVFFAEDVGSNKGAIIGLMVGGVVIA

Compound	IC50 (Aβ1-42 peptide)	change in levels of Aβ in fly heads (ELISA) (Aβ42)	percentage of flies in middle section after 10 s [1, 2]	percentage of flies in bottom section after 10 s [1, 3]	percentage climbing compared to control, bottom, 95% CI ([1]; 1 mcg/mL, FIG. 8)	percentage climbing compared to control, middle, 95% CI ([1]; 1 mcg/mL, FIG. 8)	percentage of flies in bottom section after 10 s ([1]; 10 mcg/mL fly food)	percentage of flies in middle section after 10 s ([1]; 10 mcg/mL fly food)	percentage climbing compared to control, middle, 95% CI ([1]; 10 mcg/mL, FIG. 8)	decrease in cell viability, compound co-administered with Aβ42 (SH-SY5Y cells)	cytotoxicity / neurotoxicity of compound alone (SH-SY5Y cells)	also measured
O=C(/C=C/C=C/c1ccc(N2CCCCC2)cc1)c1ccc(Cl)cc1 [Compound 33, (2E,4E)-1-(4-chlorophenyl)-5-(4-(piperidin-1-yl)phenyl)penta-2,4-dien-1-one]	1100 nM	no statistically significant change	26.00%	66.00%	18.63-40.04	−29.70-−13.63	74.00%	22.33%	−26.04-−9.964	52%	no cytotoxicity	percentage of flies in top section after 10 s ([1]; 1 mcg/mL fly food, control 0.33%): 8.00%; percentage climbing compared to control, top, 95% CI ([1]; 1 mcg/mL, FIG. 8): −12.8-−2.516; percentage climbing compared to control, bottom, 95% CI ([1]; 10 mcg/mL, FIG. 8): 10.63-32.04
CSc1ccc(C(=O)/C=C/C=C/c2ccc(N(C)C)cc2)cc1 [Compound 18, (2E,4E)-5-(4-(dimethylamino)phenyl)-1-(4-(methylthio)phenyl)penta-2,4-dien-1-one]	1500 nM											
CN(C)c1ccc(/C=C/C=C/C(=O)c2cc(Cl)cc(Cl)c2)cc1 [Compound 25, (2E,4E)-1-(3,5-dichlorophenyl)-5-(4-(dimethylamino)phenyl)penta-2,4-dien-1-one]	910 nM	no statistically significant change	15.56%	82.15%	1.543-24.82	−18.97-−3.487				52%	no cytotoxicity	
(2E,4E)-1-(4-chlorophenyl)-5-(4-(piperidin-1-yl)phenyl)penta-2,4-dien-1-one [Compound 34]	620 nM	no statistically significant change					82.50%	15.00%	−18.78-−2.558	60%	no cytotoxicity	percentage of flies in bottom section after 10 s ([1]; 100 mcg/mL fly food): 81.26%; percentage of flies in middle section after 10 s ([1]; 100 mcg/mL fly food): 14.90%; percentage climbing compared to control, bottom, 95% CI ([1]; 100 mcg/mL, FIG. 8): 3.395-24.75; percentage climbing compared to control, middle, 95% CI ([1]; 100 mcg/mL, FIG. 8): −18.67-−2.463
CN(C)c1ccc(C=CC=CC(=O)c2ccc(Cl)cc2)cc1 [Compound 3]	2400 nM											
COc1ccc(C(=O)/C=C/C=C/c2ccc(N(C)C)cc2)cc1 [Compound 15, (2E,4E)-5-(4-(dimethylamino)phenyl)-1-(4-methoxyphenyl)penta-2,4-dien-1-one]	3200 nM											
